PMC6609034, “Unraveling the role of the secretor antigen in human rotavirus attachment to histo-blood group antigens” (PLoS Pathogens, 2019)

Columns and labels:
[1] = molecular target: T1, VP8* P[8]Wa (lineage I) (Rotavirus A, UniProt P11193); assay: SPR apparent affinity of VP8* for immobilized HBGAs; assay type: binding, human rotavirus; details: PAA-biotin glycan immobilized on SA chip, VP8* as analyte, 10°C, ± standard deviation, read-out: Kda (apparent affinity constant)
T1 construct: amino acids 64–224 from the VP4 protein of rotavirus; GST (N); made in house; host or cells: E. coli BL21 (DE3)
T1 sequence (P11193 64-224): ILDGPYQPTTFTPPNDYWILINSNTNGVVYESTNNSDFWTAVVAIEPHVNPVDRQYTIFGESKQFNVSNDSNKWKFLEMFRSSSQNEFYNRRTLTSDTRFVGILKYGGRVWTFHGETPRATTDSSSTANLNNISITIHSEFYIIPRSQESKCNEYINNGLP
Protocol: (§1) The affinity assays were based on SPR and performed in a Biacore T100 instrument (GE Healthcare). H1 PAA-biotin and LNB PAA-biotin were diluted to a concentration of 1 mg/ml in water and captured with streptavidin present in a SA sensor chip (GE Healthcare). H1 was immobilized in channel 2 (630 RU) of the sensor chip and LNB was immobilized in channel 4 (624 RU). The channels 1 and 3 were used as the reference surfaces for channels 2 and 4, respectively. The immobilization process was performed by conditioning the sensor chip surface with three consecutive 1-minute injections of 1 M NaCl 50 mM NaOH before biotinylated ligands were immobilized at a flow rate of 15 μl/min. The affinity assays of VP8* polypeptides to biotinylated sugars were performed at 10°C using 1X HBS-EP^+ buffer (0.01 M HEPES pH 7.4, 0.15 M NaCl, 3 mM EDTA, 0.005% Surfactant P20), a flow rate of 5 μl/min with 2700 seconds of contact time and a dissociation time of 1800 seconds. The regeneration step consisted in a wash step with 10 mM Glycine-HCl pH 2 for 20 seconds at the same flow rate. The assays were performed with purified VP8* at different concentrations (45; 137; 411; 1,234; 3,703; 11,111; 33,333; 100,000 and 200,000 nM). Each run included three blanks without sample. The affinity data were obtained after analysis of sensorgrams performed with the BIAevaluation 2.0 software (GE Healthcare). Since multivalent oligosaccharides are immobilized on a sensor chip surface, avidity and rebinding effects can take place and apparent affinity constants (Kda) are calculated with this experimental setup. Kda values were obtained from the steady-state kinetics experiment as the ligand concentration needed to achieve a half-maximum binding at equilibrium. The experiments were made in triplicate. Graphical representation of signal/concentration curves were plotted using GraphPad Prism 6 for MacOsX.

[2] = molecular target: T2, VP8* P[8]c (clinical isolate, lineage III) (Rotavirus A, UniProt A0A0S0VKY7); assay: as above; assay type: binding, human rotavirus; details: PAA-biotin glycan immobilized on SA chip, VP8* as analyte, 10°C, ± standard deviation, read-out: Kda (apparent affinity constant)
T2 sequence (A0A0S0VKY7 1-161): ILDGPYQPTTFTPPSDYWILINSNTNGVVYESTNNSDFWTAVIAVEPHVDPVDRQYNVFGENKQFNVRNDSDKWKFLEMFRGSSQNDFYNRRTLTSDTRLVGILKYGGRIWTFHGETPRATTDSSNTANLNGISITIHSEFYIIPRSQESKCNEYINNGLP
Protocol: as §1

[3] = molecular target: VP8* from Rotarix strain (lineage I); assay: SPR interaction of VP8* with immobilized HBGAs; assay type: binding, human rotavirus
Protocol: as §1

[4] = molecular target: VP8* from the lineage IV strain (P[8]LIV); assay: SPR interaction of VP8* with immobilized HBGAs; assay type: binding, human rotavirus
Protocol: as §1

[5] = system: P[8]c VP8* mutant E212A (M3); assay: SPR binding of VP8* mutant; design: species or system human rotavirus
From the text: (§2) Selected residues in the GST::VP8* P[8] were replaced for alanine or valine according to the structural data of the LNB binding site. Four mutants (M1–M4) were constructed using a Quick-Change site-directed mutagenesis kit (Stratagene) and appropriate oligonucleotides (S5 Table), and the DNA changes were confirmed by DNA sequencing. Mutant M1, M2 and M3 contained changes in the codons for tryptophan 174, arginine 209 and glutamic 212 residues, respectively, that introduced an alanine at each position. Mutant M4 substituted isoleucine 173 by valine.
as §1

[6] = system: P[8]c VP8* mutant R209A (M2); assay: SPR binding of VP8* mutant; design: species or system human rotavirus
From the text: as §2, §1

[7] = system: P[8]c VP8* mutant W174A (M1); assay: SPR binding of VP8* mutant; design: species or system human rotavirus
From the text: as §2, §1

[8] = system: Wa DLP (double-layered particles); assay: ELISA-like glycan binding assay of rotavirus particles; design: species or system human rotavirus; details: DLP 10 to 0.078 μg/ml
From the text: (§3) African green monkey kidney epithelial cells (MA104 cell line; ATTC #CRL-2378.1) were used for the propagation of rotavirus Wa strain that belongs to the globally dominant human genotype G1P[8]. Briefly, ten MA104 cells confluent 150-cm^2 flasks (approximately 1.5 ×10^7 cells/flask) were infected with Wa strain at a multiplicity of infection (MOI) of ≤ 0.1 and processed as previously described. One hundred ml of medium with 1.5x10^8 virus/ml were obtained and the viral particles were concentrated by pelleting at 160,000 × g for 1 h at 4°C in a SW 41 rotor (Beckman). The viral pellet was resuspended in TNC buffer (20 mM Tris-HCl pH 8.0, 100 mM NaCl, 1 mM CaCl2) for triple-layered particles (TLP) or in TNE (20 mM Tris-HCl, pH 8.0, 100 mM NaCl, 1 mM EDTA) for double-layered particles (DLP).
(§4) An ELISA-like binding assay was employed to determine the binding ability of rotavirus TLP and DLP to the H type-1 antigen and to its precursor LNB. Streptavidin plates were coated with the biotinylated oligosaccharides as described above. After washing with PBS-T, two fold serial dilutions of TLPs and DLP were added to the plate (ranging from 10 μg/ml to 0.078 μg/ml). The TLP were always maintained in TNC-T (20 mM Tris, 100 mM NaCl, 1 mM CaCl2, 0.05% Tween 20, pH 7,4) buffer and the binding and washing steps were always carried out in this solution. DLPs assays were carried out in Tris-buffered saline buffer with Tween 20 (TBS-T, 20 mM Tris, 100 mM NaCl, 0.05% Tween 20, pH 7.4). TLP and DLP were incubated in the plate overnight at 4°C. After binding, the plates were washed three times in TNC-T (for TLP) or TBS-T (for DLP) with 0.05% Tween 20 (TNC-T and TBS-T), and a mouse anti-VP6 antibody was added at 1:100 in TNC-T or TBS-T and incubated 1 h at 37°C. The plates were then washed three times with TNC-T or TBS-T, and a HRP-conjugated anti-mouse IgG was added at 1:10.000 and incubated at 37°C for 1 h. […] Fluorescence units were recorded by a MultiScan microplate reader.

[9] = system: Wa TLP (triple-layered particles); assay: as above; design: species or system human rotavirus; details: TLP 10 to 0.078 μg/ml
From the text: as §3, §4

Compound	Kd [1] [µM]	Kd [2] [µM]	interaction by SPR [3]	interaction by SPR [4]	binding by SPR [5]	binding by SPR [6]	binding by SPR [7]	binding of rotavirus particles (ELISA-like) [8]	binding of rotavirus particles (ELISA-like) [9]
CC(=O)NC1C(O)OC(CO)C(O)C1OC1OC(CO)C(O)C(O)C1O (stereo not drawn) [LNB, Gal-β1,3-GlcNAc]	66.5	52.1	too low to be determined	too low to be determined	lost their ability to interact	lost their ability to interact	lost their ability to interact	not	able to bind
CC(=O)NC1C(O)OC(CO)C(O)C1OC1OC(CO)C(O)C(O)C1OC1OC(C)C(O)C(O)C1O (stereo not drawn) [H1, Fuc-α1,2-Gal-β1,3-GlcNAc]	80.2	27.9	too low to be determined	too low to be determined	lost their ability to interact	lost their ability to interact	lost their ability to interact	not	able to bind
